# Where “and” joins values, the source holds several entries; their conditions need not be identical. Identical values can stand only once. Like-named read-outs stand apart in the source and are kept apart here.
# Tests used:
# [1] = tested on: guinea pig ileum; test: tissue or blood; type: cell-based; conditions: for EC50: Cavia porcellus, read-out: ED50
# [2] = in vivo
# [3] = tested on: Human Eyes; conditions: in vivo
# [4] = tested on: Mice Eyes; conditions: mouse, in vivo
# [5] = pH 7
# [6] = tested on: Human Eyes; conditions: in vivo; remark: listed apart in the source
smiles,measurement,setting,value
"CC(=O)OC1CN2CCC1CC2 (racemic) [(±) H Cl, 3-acetoxy-quinuclidine, reference compound]",EPMR (Equipotent molar ratio),[1],20
same,EC50,[1],700 nM
CC[C@@H]1C(=O)OC[C@@H]1Cc1cncn1C [Pilocarpine],Intraoccular pressure,[2],31 mmHg and 33 mmHg and 24 mmHg and 25 mmHg and 26 mmHg and 29 mmHg and 28 mmHg
"CC(=O)OC1CN2CCC1CC2 (single isomer, unassigned; (-)) [(-) H Cl]",Pupil Diameter,[3],4.5 mm and 4.0 mm and 3.5 mm and 3.7 mm and 3.0 mm and 3.2 mm and 3.6 mm
same,EPMR (Equipotent molar ratio),[1],100
same,Reversal of Mydriasis Time,[4],> 15 min
"CC(=O)OC1CN2CCC1CC2 (single isomer, unassigned; (+)) [(+) 3-acetoxy quinuclidine]",stability of solutions on storage,[5],no perceptible deterioration
"CC(=O)OCC[N+](C)(C)C [Acetylcholine, reference compound]",EC50,[1],30 nM
"CC(=O)OC1CN2CCC1CC2 (single isomer, unassigned; (+)) [(+) H Cl, (+) 3-acetoxy quinuclidine]",Pupil Diam.,[3],4.5 mm and 3.0 mm and 3.5 mm
same,ACh-like agonist strength,[1],strongest agonist
same,Blockade of agonist effect by atropine,[1],blocked
same,EPMR (Equipotent molar ratio),[1],25
same,Pupil Diameter,[6],3.5 mm
same,Time after which acute miosis developed,[4],4 min

# — patent US3997543A (priority 1974, dated 1976)
